Legend:
Format in all cases: functional
[1] = Cytotoxicity against human MIAPaCa2 cells at 10 uM after 48 hrs by SRB assay; conditions: MIA PaCa-2, 48 h
[2] = Cytotoxicity against human PLC/PRF/5 cells at 10 uM after 48 hrs by SRB assay; conditions: PLC-PRF-5, 48 h
SK-OV-3 = assay: Cytotoxicity against human SKOV3 cells at 10 uM after 48 hrs by SRB assay; conditions: SK-OV-3, 48 h
DU-145 = assay: Cytotoxicity against human DU145 cells at 10 uM after 48 hrs by SRB assay; conditions: DU-145, 48 h
[3] = Cytotoxicity against human A172 cells at 10 uM after 48 hrs by SRB assay; conditions: A 172, 48 h
A549 = assay: Cytotoxicity against human A549 cells at 10 uM after 48 hrs by SRB assay; conditions: A549, 48 h
MCF7 = assay: Cytotoxicity against human MCF7 cells at 10 uM after 48 hrs by SRB assay; conditions: MCF7, 48 h
[4] = Cytotoxicity against human DLD1 cells at 10 uM after 48 hrs by SRB assay; conditions: DLD-1, 48 h

| Structure (SMILES) | inhibition at 10 µM [1] [%] | inhibition at 10 µM [2] [%] | inhibition at 10 µM (SK-OV-3) [%] | inhibition at 10 µM (DU-145) [%] | inhibition at 10 µM [3] [%] | inhibition at 10 µM (A549) [%] | inhibition at 10 µM (MCF7) [%] | inhibition at 10 µM [4] [%] |
| --- | --- | --- | --- | --- | --- | --- | --- | --- |
| COc1ccc(C(=O)/C=C/c2nccc3c4ccccc4n(C)c23)cc1OC | 7.71 | 42.4 | 68.7 | 34.1 | 15.5 | 19.6 | 12.9 | 45.3 |
| O=C(/C=C/c1nccc2c1[nH]c1ccccc12)c1ccc(Cl)cc1 | -13.1 | 80.5 | 0.2 | 7.63 | 75.8 | 4.68 | 15 | 41.2 |
| Cc1ccc(C(=O)/C=C/c2nccc3c4ccccc4n(C)c23)cc1 | 13.7 | 32.2 | 46.2 | 45.7 | 19.2 | 13.2 | 20.8 | 35.8 |
| CCn1c2ccccc2c2ccnc(/C=C/C(=O)c3ccc(OC)cc3)c21 | 9.18 | 61.6 | 43.7 | 52.5 | 39.2 | 21.2 | 27.2 | 55.5 |
| Cn1c2ccccc2c2ccnc(/C=C/C(=O)c3ccccc3)c21 | 25.5 | 64.9 | 28.6 | 53.2 | 75.5 | 19.3 | 27.2 | 67.5 |
| COc1ccc(C(=O)/C=C/c2nccc3c4ccccc4n(C)c23)cc1 | -0.03 | 16.9 | 37.4 | 9.1 | 0.18 | -3.88 | 8.18 | 28.2 |
| COc1ccc(C(=O)/C=C/c2nccc3c2[nH]c2ccccc23)cc1 | 33.7 | 70.8 | 33.9 | 61.9 | 77.2 | 29.2 | 37.2 | 74.2 |
| O=C(/C=C/c1nccc2c1[nH]c1ccccc12)c1ccc(F)cc1 | -4.04 | 49.9 | 8.15 | -5.2 | 16.2 | 6.73 | 9.92 | 25.6 |
| CCn1c2ccccc2c2ccnc(/C=C/C(=O)c3ccccc3)c21 | 25 | 75.1 | 33.5 | 54.2 | 80.5 | 12.5 | 39.3 | 77.6 |

— ChEMBL document CHEMBL3286126, “Synthesis of novel β-carboline based chalcones with high cytotoxic activity against breast cancer cells” (Bioorg Med Chem Lett, 2014)
